According to ChEMBL document CHEMBL1158784, “Sorbicillin analogues and related dimeric compounds from Penicillium notatum” (2005):
Active and inactive are the calls of the source. The rule behind the calls is not given here.

Assays:
Bacillus subtilis = test: Antimicrobial activity against Bacillus subtilis at 20 ug/9 mm disk by agar diffusion method; type: functional
Candida albicans = test: Antimicrobial activity against Candida albicans at 20 ug/9 mm disk by agar diffusion method; type: functional
Escherichia coli = test: Antimicrobial activity against Escherichia coli at 20 ug/9 mm disk by agar diffusion method; type: functional, organism-based
Chlorella sorokiniana = test: Antimicrobial activity against Chlorella sorokiniana at 20 ug/9 mm disk by agar diffusion method; type: functional, organism-based
Staphylococcus aureus = test: Antimicrobial activity against Staphylococcus aureus at 20 ug/9 mm disk by agar diffusion method; type: functional
Desmodesmus subspicatus = test: Antimicrobial activity against Scenedesmus subspicatus at 20 ug/9 mm disk by agar diffusion method; type: functional, organism-based
Chlorella vulgaris = test: Antimicrobial activity against Chlorella vulgaris at 20 ug/9 mm disk by agar diffusion method; type: functional, organism-based
Rhizomucor miehei = test: Antimicrobial activity against Mucor miehei at 20 ug/9 mm disk by agar diffusion method; type: functional, organism-based
[1] = test system: Streptomyces viridochromogenes; test: Antimicrobial activity against Streptomyces viridochromogenes Tu57 at 20 ug/9 mm disk by agar diffusion method; type: functional, organism-based

Structure (SMILES)	inhibition zone (IZ) (Bacillus subtilis)	inhibition zone (IZ) (Candida albicans)	Activity (Escherichia coli)	Activity (Chlorella sorokiniana)	inhibition zone (IZ) (Staphylococcus aureus)	Activity (Desmodesmus subspicatus)	Activity (Chlorella vulgaris)	Activity (Rhizomucor miehei)	Activity [1]	Activity (Bacillus subtilis)	Activity (Candida albicans)	Activity (Staphylococcus aureus)
CC(C)=CCC/C(C)=C/CC/C(C)=C/C[C@@]12O[C@@H]1[C@H](O)C(C)=CC2=O	12 mm	13 mm	inactive	inactive	12 mm	inactive	inactive	inactive	inactive			
C/C=C/C=C/C(=O)C1=C(C)C(=O)C(O)=C(C)C1=O			inactive	inactive		inactive	inactive	inactive	inactive	inactive	inactive	inactive
C/C=C/C=C/C(=O)[C@]12C(=O)C(C)=C(O)[C@@](C)(O)[C@H]1[C@H]1\C(=C(O)/C=C/C=C/C)C(=O)[C@]2(C)C(=O)[C@@]1(C)O [BISORBICILLINOL]	12 mm	13 mm	inactive	inactive	12 mm	inactive	inactive	inactive	inactive			
C/C=C/C=C/C(O)=C1/C(=O)[C@](C)(O)C(=O)C(C)=C1O	12 mm	13 mm	inactive	inactive	12 mm	inactive	inactive	inactive	inactive			
C/C=C/C=C/C(O)=C1\C(=O)C(C)=C(O)[C@@](C)(O)C1=O			inactive	inactive		inactive	inactive	inactive	inactive	inactive	inactive	inactive
C/C=C/CCC(=O)c1cc(C)c(O)c(C)c1O	12 mm	13 mm	inactive	inactive	12 mm	inactive	inactive	inactive	inactive			
C/C=C/CCC(=O)c1c(C)c(O)c(O)c(C)c1O			inactive	inactive		inactive	inactive	inactive	inactive	inactive	inactive	inactive
C/C=C/C=C/C(O)=C1\C(=O)[C@]2(C)C(=O)[C@@](C)(O)[C@H]1[C@H]1OC(=O)C[C@]12CO [REZISHANONE A]	12 mm	13 mm	inactive	inactive	12 mm	inactive	inactive	inactive	inactive			
C/C=C/C=C/C(=O)C1=C[C@@]2(C)[C@H]3C(C(=O)/C=C/C=C/C)=C(O)C(C)=C(O)[C@@]3(C)O[C@@]2(O)[C@@](C)(O)C1=O			inactive	inactive		inactive	inactive	inactive	inactive	inactive	inactive	inactive
C/C=C/C=C/C(O)=C1/C(=O)[C@]2(C)C(=O)[C@@](C)(O)[C@H]1[C@H]1[C@]2(C(=O)CC/C=C/C)C(=O)C(C)=C(O)[C@@]1(C)O [BISVERTINOQUINOL]	12 mm	13 mm	inactive	inactive	12 mm	inactive	inactive	inactive	inactive			
C/C=C/CCC(=O)c1cc(C)c(O)cc1O [SOHIRNONE A]	12 mm	13 mm	inactive	inactive	12 mm	inactive	inactive	inactive	inactive			
C/C=C/C=C/C(O)=C1\C(=O)[C@]2(C)C(=O)[C@@](C)(O)[C@H]1C[C@@H]2OCCCC [REZISHANONE B]	12 mm	13 mm	inactive	inactive	12 mm	inactive	inactive	inactive	inactive			
C/C=C/C=C/C(O)=C1\C(=O)[C@]2(C)C(=O)[C@@](C)(O)[C@H]1C[C@@H]2OCC [REZISHANONE C]	12 mm	13 mm	inactive	inactive	12 mm	inactive	inactive	inactive	inactive			
C/C=C/CC/C(O)=C1\C(=O)[C@]2(C)C(=O)[C@@](C)(O)[C@H]1C[C@@H]2OCC [REZISHANONE D]	12 mm	13 mm	inactive	inactive	12 mm	inactive	inactive	inactive	inactive			
C/C=C/C=C/C(=O)c1c(C)c(O)c(O)c(C)c1O [SOHIRNONE B]	12 mm	13 mm	inactive	inactive	12 mm	inactive	inactive	inactive	inactive			
